Experimental data as given in patent US10028992B2, “Methods of treating muscular dystrophy” (BOARD OF REGENTS OF THE NEVADA SYSTEM OF HIGHER EDUCATION …, priority 2012, dated 2018).
Read-outs that look alike come from different tables or passages of the source.

System: α7 integrin promoter
Test: muscle cell-based assay: α7βgal+/− myoblasts/myotubes, LacZ reporter, β-galactosidase cleavage of FDG
Design: species or system mouse; Results in α7+/− β-galactosidase assay: scale not given here
Settings: for EC50 / AC50 / Emax: Mus musculus; for Fit Curve Class: key not given; for Results in a α7+/− β-galactosidase assay, Myotubes, 0.5 uM: compound at 0.5 uM; for Results in a α7+/− β-galactosidase assay, Myotubes, 1 uM: compound at 1 uM; for Results in a α7+/− β-galactosidase assay, Myotubes, 5 uM: compound at 5 uM; for Results in a α7+/− β-galactosidase assay, Myotubes, 10 uM: compound at 10 uM; for Results in a α7+/− β-galactosidase assay, Myotubes, 20 uM: compound at 20 uM; for Results in a α7+/− β-galactosidase assay, Myotubes, 40 uM: compound at 40 uM; for AC50: log of AC50, given with negative sign, unit of AC50 not given, read-out: Fit Log AC50 (converted); for Emax: read-out: Max Response [%]; for Results in α7+/− β-galactosidase assay: Myoblasts
Procedure, shortened: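 Fluorescein generated from FDG by β-galactosidase reports α7 integrin promoter activity in differentiated myoblasts from α7+/− LacZ knock-in pups. Screening hits then went to dose-response, western blotting and a myostatin counterscreen.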

[1] = given as log AC50 (negative values), read-out: Fit LogAC50 (converted)
[2] = curve fit, activity at zero concentration
[3] = Table 12, fitted activity at zero concentration
[4] = Table 12 Compound data, concentration-response curve fit

O=C(Nc1ccc(S(=O)(=O)Nc2nccs2)cc1)c1ccccc1OC(F)F [Compound 137]
EC50 [1]: 10 µM
Score (Table 12 compound data): 42
Fit Curve Class (curve class number): 2.1
Fit HillSlope (curve fit): 4.9549
Fit Zero Activity [%] [2]: −19.2861%

Cc1nc(/C=C2\C(=O)Nc3ccccc32)c[nH]1 [drawing 480]
Results in a α7+/− β-galactosidase assay, Myotubes, 0.5 uM: 0.01879
Results in a α7+/− β-galactosidase assay, Myotubes, 1 uM: −0.05703
Results in a α7+/− β-galactosidase assay, Myotubes, 5 uM: 0.093
Results in a α7+/− β-galactosidase assay, Myotubes, 10 uM: 0.007066
Results in a α7+/− β-galactosidase assay, Myotubes, 20 uM: 0.01022
Results in a α7+/− β-galactosidase assay, Myotubes, 40 uM: −0.04283

CCN1C(=O)/C(=C(/C#N)c2nc3ccccc3[nH]2)c2ccccc21 [drawing 316]
Results in a α7+/− β-galactosidase assay, Myotubes, 0.5 uM: −0.1345
Results in a α7+/− β-galactosidase assay, Myotubes, 1 uM: −0.06381
Results in a α7+/− β-galactosidase assay, Myotubes, 5 uM: 0.001992
Results in a α7+/− β-galactosidase assay, Myotubes, 10 uM: 0.06976
Results in a α7+/− β-galactosidase assay, Myotubes, 20 uM: −0.2893
Results in a α7+/− β-galactosidase assay, Myotubes, 40 uM: −0.2363

C/C(CC(=O)Nc1ccc(Cl)c(C(F)(F)F)c1)=N\NC(=O)c1cnccn1 [Compound 38]
AC50 (Table 12): 4.47 µM
Emax: 72.7%
Fit HillSlope (Table 12, curve fit): 4.9549
Fit Zero Activity [%] [3]: −2.0156%
Fit Curve Class (Table 12): 1.2
Score [4]: 63

CC1CCCCN1c1ncnc(N)c1[N+](=O)[O-] (stereo not drawn) [Compound 52]
AC50 (Table 12): 4.47 µM
Emax: 130%
Fit HillSlope (Table 12, curve fit): 1.4781
Fit Zero Activity [%] [3]: −27.7073%
Fit Curve Class (Table 12): 2.1
Score [4]: 46

c1ccc(-c2cn3c4c(sc3n2)CCCC4)cc1 [drawing 698]
Results in α7+/− β-galactosidase assay (0.5 uM): 0.1572
Results in α7+/− β-galactosidase assay (1 uM): 0.06589
Results in α7+/− β-galactosidase assay (5 uM): 0.03743
Results in α7+/− β-galactosidase assay (10 uM): 0.2239
Results in α7+/− β-galactosidase assay (20 uM): −0.06232
Results in α7+/− β-galactosidase assay (40 uM): −0.1797

COc1cc(Cl)cc(CN2CCC(CCC(=O)NC3CC3)CC2)c1OC [Compound 167]
EC50 [1]: 7.08 µM
Score (Table 12 compound data): 42
Fit Curve Class (curve class number): 2.1
Fit HillSlope (curve fit): 1.7885
Fit Zero Activity [%] [2]: −38.2233%

CCOc1cc(C)c(S(=O)(=O)N2CCCCC2)cc1C [drawing 471]
Results in a α7+/− β-galactosidase assay, Myotubes, 0.5 uM: −0.1603
Results in a α7+/− β-galactosidase assay, Myotubes, 1 uM: −0.08287
Results in a α7+/− β-galactosidase assay, Myotubes, 5 uM: −0.1415
Results in a α7+/− β-galactosidase assay, Myotubes, 10 uM: −0.1282
Results in a α7+/− β-galactosidase assay, Myotubes, 20 uM: 0.01353
Results in a α7+/− β-galactosidase assay, Myotubes, 40 uM: −0.03791

CC(C)(C)NC(=O)NC(=O)CN1CCN(Cc2ccccc2)CC1 [drawing 424]
Results in a α7+/− β-galactosidase assay, Myotubes, 0.5 uM: 0.003071
Results in a α7+/− β-galactosidase assay, Myotubes, 1 uM: −0.04272
Results in a α7+/− β-galactosidase assay, Myotubes, 5 uM: 0.04658
Results in a α7+/− β-galactosidase assay, Myotubes, 10 uM: 0.4408
Results in a α7+/− β-galactosidase assay, Myotubes, 20 uM: −0.2165
Results in a α7+/− β-galactosidase assay, Myotubes, 40 uM: 0.07828

CCC(=O)c1ccccc1OCCCN1CCN(C)CC1.Cl [Compound ID# 1002, 1-{2-[3-(4-methyl-1-piperazinyl)propoxy]Phenyl}-1-propanone hydrochloride]
EC50 (enhancement of α7 integrin expression in muscle cells, read-out: EC50): 1.5 µM
Optimal Concentration (enhancement of α7 integrin expression in muscle cells): 12.5 μm
α7 integrin expression in muscle (screen of DIVERSet library): increased

Cc1ccc2c(c1)/C(=C/c1ccccc1F)C(=O)N2 [drawing 667]
Results in α7+/− β-galactosidase assay (0.5 uM): −0.02616
Results in α7+/− β-galactosidase assay (1 uM): 0.02782
Results in α7+/− β-galactosidase assay (5 uM): −0.04422
Results in α7+/− β-galactosidase assay (10 uM): −0.06595
Results in α7+/− β-galactosidase assay (20 uM): −0.1695
Results in α7+/− β-galactosidase assay (40 uM): −0.3533

Cc1cccn2c(=O)c3cc(C(=O)NC4CCCCC4)n(C)c3nc12 [Compound 40]
AC50 (Table 12): 14.1 µM
Emax: 427%
Fit HillSlope (Table 12, curve fit): 4.5045
Fit Zero Activity [%] [3]: −3.212%
Fit Curve Class (Table 12): 2.1
Score [4]: 48

CC(C)(C)c1ccc(C(=O)OCC(=O)Nc2sc3c(c2C#N)CCC3)cc1 [drawing 470]
Results in a α7+/− β-galactosidase assay, Myotubes, 0.5 uM: −0.03535
Results in a α7+/− β-galactosidase assay, Myotubes, 1 uM: −0.03363
Results in a α7+/− β-galactosidase assay, Myotubes, 5 uM: 0.4586
Results in a α7+/− β-galactosidase assay, Myotubes, 10 uM: −0.1998
Results in a α7+/− β-galactosidase assay, Myotubes, 20 uM: −0.05439
Results in a α7+/− β-galactosidase assay, Myotubes, 40 uM: −0.05938

CC(C)/N=C(\S)NN=C1CCCCCCCCCCC1 [Compound 36]
AC50 (Table 12): 3.16 µM
Emax: 78.6%
Fit HillSlope (Table 12, curve fit): 1.4163
Fit Zero Activity [%] [3]: 5.5%
Fit Curve Class (Table 12): 1.2
Score [4]: 64

O=C(NC(=S)NCCC1=CCCCC1)c1ccc(Br)o1 [Compound 205]
EC50 [1]: 7.08 µM
Score (Table 12 compound data): 42
Fit Curve Class (curve class number): 2.1
Fit HillSlope (curve fit): 1.4781
Fit Zero Activity [%] [2]: −40.2978%
